Reference: PMC6155021, “Ancient and modern anticonvulsants act synergistically in a KCNQ potassium channel binding pocket” (Nature Communications, 2018)

Legend:
KCNA1 = KCNA1 (Homo sapiens, UniProt Q09470); assay: Two-electrode voltage-clamp of KCNA1 in Xenopus oocytes; type: cell-based; conditions: MTX concentration not given; IVA 500 µM
Description: (§1) cRNA transcripts encoding human KCNA1, KCNQ1, KCNQ2, KCNQ3, KCNQ4, or KCNQ5 were generated by in vitro transcription using the T7 polymerase message machine kit (Thermo Fisher Scientific), after vector linearization, from cDNA sub-cloned into plasmids incorporating X. laevis β-globin 5′ and 3′ UTRs flanking the coding region to enhance translation and cRNA stability. cRNA was quantified by spectrophotometry. Mutant cDNAs were generated by site-directed mutagenesis using a QuikChange kit according to manufacturer’s protocol (Stratagene, San Diego, CA) and corresponding cRNAs prepared as above. Defolliculated stage V and VI X. laevis oocytes (Ecocyte Bioscience, Austin, TX) were injected with Kv channel α subunit cRNAs (10 ng total per oocyte). Oocytes were incubated at 16 °C in Barth’s saline solution (Ecocyte) containing penicillin and streptomycin, with daily washing, for 3–5 days prior to two-electrode voltage-clamp (TEVC) recording.
Oocytes were placed in a small-volume oocyte bath (Warner) and viewed with a dissection microscope. Chemicals were sourced from Sigma. Bath solution was (in mM): 96 NaCl, 4 KCl, 1 MgCl2, 1 CaCl2, 10 HEPES (pH 7.6). […] MTX (DMSO), sorbic acid (ethanol), and glutaconic acid (molecular grade H2O) were stored at −20 °C as 1 M stocks. Oleamide was stored as a 1 mM stock in ethanol at 4 °C. Palmitic acid was conjugated with bovine serum albumin as a 1 mM stock and stored at −20 °C. All compounds were diluted to working concentrations each experimental day. All compounds were introduced to the recording bath via gravity perfusion at a constant flow of 1 ml/min for 3 min prior to recording. Pipettes were of 1–2 MΩ resistance when filled with 3 M KCl. Currents were recorded in response to pulses between −80 and +40 mV at 20 mV intervals, or a single pulse to +40 mV, from a holding potential of −80 mV, to yield current–voltage relationships, current magnitude, and for quantifying activation rate. […]

[1] = rats fed Mallotus philippensis extract; cited from earlier work
[2] = test system: water-injected control oocytes; assay: Two-electrode voltage-clamp of water-injected control oocytes; type: cell-based, Xenopus laevis
Description: Chemicals were sourced from Sigma.

Q2/W265L-Q3 channels = Q2/W265L-Q3 channels (Homo sapiens, UniProt O43525+O43526, W265L); assay: Two-electrode voltage-clamp of Q2/W265L-Q3 mutant channels in Xenopus oocytes; type: cell-based; conditions: for Non-normalized tail current V0.5 / Normalized tail current V0.5 / Slope: Q2/W265L-Q3
Description: as §1
(§2) Oocytes were placed in a small-volume oocyte bath (Warner) and viewed with a dissection microscope. Chemicals were sourced from Sigma. Bath solution was (in mM): 96 NaCl, 4 KCl, 1 MgCl2, 1 CaCl2, 10 HEPES (pH 7.6). […] MTX (DMSO), sorbic acid (ethanol), and glutaconic acid (molecular grade H2O) were stored at −20 °C as 1 M stocks. Oleamide was stored as a 1 mM stock in ethanol at 4 °C. Palmitic acid was conjugated with bovine serum albumin as a 1 mM stock and stored at −20 °C. All compounds were diluted to working concentrations each experimental day. All compounds were introduced to the recording bath via gravity perfusion at a constant flow of 1 ml/min for 3 min prior to recording. Pipettes were of 1–2 MΩ resistance when filled with 3 M KCl. Currents were recorded in response to pulses between −80 and +40 mV at 20 mV intervals, or a single pulse to +40 mV, from a holding potential of −80 mV, to yield current–voltage relationships, current magnitude, and for quantifying activation rate. TEVC data analysis was performed with Clampfit10.2 (Molecular Devices) and Graphpad Prism software (GraphPad, San Diego, CA, USA); values are stated as mean ± SEM. Normalized tail currents were plotted versus prepulse voltage and fitted with a single Boltzmann function:1 g=A1-A2/1+expV12-Vy+A2, where g is the normalized tail conductance, A1 is the initial value at −∞, A2 is the final value at +∞, V1/2 is the half-maximal voltage of activation, and Vs the slope factor. Activation and deactivation kinetics were fitted with single-exponential functions.

KCNQ2/3 channels = KCNQ2/3 channels (Homo sapiens, UniProt O43525+O43526); assay: Two-electrode voltage-clamp of KCNQ2/3 channels expressed in Xenopus laevis oocytes; type: cell-based
Description: as §1, §2

[3] = test system: pentylene tetrazole-induced seizures; assay: PTZ chemoconvulsant assay; type: in vivo, mouse; conditions: mice
Description: We compared anticonvulsant activities of test compounds in male C57BL/6 mice (Charles River) aged 2–3 months. Mice were housed and used according to the recommendations in the Guide for the Care and Use of Laboratory Animals of the National Institutes of Health (NIH Publication, 8th edition, 2011). The study protocol was approved by the Institutional Animal Care and Use Committee of University of California, Irvine, which confirmed that all relevant ethical regulations were adhered to. Chemicals were sourced from Sigma (St. Louis, MO, USA) . A pentylene tetrazole (PTZ) chemoconvulsant assay was used[54]. […] Following the PTZ injection, mice were caged individually and an observer (GWA) blinded to the drug used recorded, over 20 min, clonic and tonic seizure incidence, and seizure-related mortality.
All values are expressed as mean ± SEM. Chi-squared analysis was used to compare seizure-related mortality in mice. One-way ANOVA was applied for all other tests; if multiple comparisons were performed, a post-hoc Tukey’s HSD test was performed following ANOVA. All p-values were two-sided. Statistical significance was defined as p < 0.05.

[4] = KCNQ2/3, 30 µM, Supplementary Table 10
[5] = KCNQ2/3, 30 µM, Supplementary Table 11
[6] = KCNQ2/3, 30 µM, dose series (Supplementary Table 5)

Sequence of Q2/W265L-Q3 channels (O43526 whole entry): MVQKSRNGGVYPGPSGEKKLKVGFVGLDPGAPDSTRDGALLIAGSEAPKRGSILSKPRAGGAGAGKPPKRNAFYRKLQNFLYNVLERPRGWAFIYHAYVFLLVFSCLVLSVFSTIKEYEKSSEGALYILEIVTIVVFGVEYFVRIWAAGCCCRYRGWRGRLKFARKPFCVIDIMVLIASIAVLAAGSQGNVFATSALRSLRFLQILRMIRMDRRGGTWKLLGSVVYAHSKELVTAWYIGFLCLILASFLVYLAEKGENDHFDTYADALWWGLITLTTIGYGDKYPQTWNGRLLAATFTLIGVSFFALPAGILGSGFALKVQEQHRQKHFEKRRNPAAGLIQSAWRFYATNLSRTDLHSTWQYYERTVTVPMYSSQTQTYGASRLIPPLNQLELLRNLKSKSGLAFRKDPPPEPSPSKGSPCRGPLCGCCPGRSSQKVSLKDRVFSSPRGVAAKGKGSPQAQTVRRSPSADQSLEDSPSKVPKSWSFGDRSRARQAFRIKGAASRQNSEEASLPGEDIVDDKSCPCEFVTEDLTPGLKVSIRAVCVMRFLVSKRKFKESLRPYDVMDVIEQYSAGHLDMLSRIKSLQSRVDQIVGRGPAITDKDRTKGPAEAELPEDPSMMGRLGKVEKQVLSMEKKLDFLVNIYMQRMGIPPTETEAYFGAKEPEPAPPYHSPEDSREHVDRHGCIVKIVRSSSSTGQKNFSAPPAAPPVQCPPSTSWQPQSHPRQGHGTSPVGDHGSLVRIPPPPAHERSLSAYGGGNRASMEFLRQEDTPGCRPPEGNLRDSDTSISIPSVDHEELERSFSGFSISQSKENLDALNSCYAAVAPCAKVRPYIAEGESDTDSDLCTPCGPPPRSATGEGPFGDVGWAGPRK
Sequence of Q2/W265L-Q3 channels (O43525 whole entry W265L): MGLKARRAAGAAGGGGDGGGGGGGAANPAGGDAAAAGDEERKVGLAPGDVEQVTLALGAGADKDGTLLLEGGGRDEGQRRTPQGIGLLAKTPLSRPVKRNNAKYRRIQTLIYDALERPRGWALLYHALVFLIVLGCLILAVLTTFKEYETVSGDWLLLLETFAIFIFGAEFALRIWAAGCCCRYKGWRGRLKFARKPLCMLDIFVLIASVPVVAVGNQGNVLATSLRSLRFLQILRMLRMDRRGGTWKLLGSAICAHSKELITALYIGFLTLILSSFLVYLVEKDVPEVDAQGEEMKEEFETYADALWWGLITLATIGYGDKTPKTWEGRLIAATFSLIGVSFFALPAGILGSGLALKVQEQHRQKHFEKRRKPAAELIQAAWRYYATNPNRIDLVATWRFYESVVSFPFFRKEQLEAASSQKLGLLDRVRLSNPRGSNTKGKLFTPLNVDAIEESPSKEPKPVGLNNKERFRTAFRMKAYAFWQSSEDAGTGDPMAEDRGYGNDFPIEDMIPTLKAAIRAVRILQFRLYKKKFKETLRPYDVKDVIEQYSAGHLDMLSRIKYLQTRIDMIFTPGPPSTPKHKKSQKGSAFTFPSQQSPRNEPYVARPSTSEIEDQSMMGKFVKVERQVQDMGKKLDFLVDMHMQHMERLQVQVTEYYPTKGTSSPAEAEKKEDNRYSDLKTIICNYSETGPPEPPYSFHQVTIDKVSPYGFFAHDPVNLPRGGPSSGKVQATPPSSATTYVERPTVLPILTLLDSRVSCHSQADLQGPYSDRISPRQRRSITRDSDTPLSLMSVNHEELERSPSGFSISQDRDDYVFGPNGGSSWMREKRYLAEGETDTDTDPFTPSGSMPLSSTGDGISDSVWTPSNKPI
Sequence of KCNA1 (Q09470 whole entry): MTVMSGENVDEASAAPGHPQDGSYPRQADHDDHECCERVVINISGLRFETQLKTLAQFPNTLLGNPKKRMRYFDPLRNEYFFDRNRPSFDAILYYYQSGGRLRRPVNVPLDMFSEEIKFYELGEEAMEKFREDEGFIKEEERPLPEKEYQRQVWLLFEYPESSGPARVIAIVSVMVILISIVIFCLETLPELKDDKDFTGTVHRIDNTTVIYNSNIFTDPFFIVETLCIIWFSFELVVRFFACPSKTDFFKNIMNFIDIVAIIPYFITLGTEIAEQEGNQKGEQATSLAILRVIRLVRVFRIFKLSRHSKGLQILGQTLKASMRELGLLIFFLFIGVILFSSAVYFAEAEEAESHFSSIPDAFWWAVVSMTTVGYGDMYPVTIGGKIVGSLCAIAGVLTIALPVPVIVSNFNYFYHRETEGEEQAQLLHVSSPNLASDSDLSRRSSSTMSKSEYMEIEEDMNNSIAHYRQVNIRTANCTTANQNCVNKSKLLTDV

## CC(=O)c1c(O)c(C)c(O)c(Cc2c(O)c3c(c(C(=O)/C=C/c4ccccc4)c2O)OC(C)(C)C=C3)c1O [MTX, mallotoxin]
KCNA1
  effect on KCNA1 currents: no effect
[1]
  Oral bioavailability: > 20%
  plasma concentrations: exceeded 2 µg/ml
[2]
  effect on endogenous current and EM of water-injected control oocytes: no effect
Q2/W265L-Q3 channels; EC50, Q2/W265L-Q3, calculated from dose responses
  EC50: 70 ± 0.6 µM
Q2/W265L-Q3 channels; 1 µM
  Non-normalized tail current V0.5: -51.3 ± 11.3 mV
  Normalized tail current V0.5: -45.7 ± 2.9 mV
  Slope: 7.9 ± 1.7 mV
Q2/W265L-Q3 channels; 3 µM
  Non-normalized tail current V0.5: -52.7 ± 10.5 mV
  Normalized tail current V0.5: -49.2 ± 2.6 mV
  Slope: 7.9 ± 1.8 mV
Q2/W265L-Q3 channels; 10 µM
  Non-normalized tail current V0.5: -54.0 ± 9.7 mV
  Normalized tail current V0.5: -51.8 ± 2.4 mV
  Slope: 7.6 ± 1.4 mV
Q2/W265L-Q3 channels; 30 µM
  Non-normalized tail current V0.5: -58.0 ± 8.3 mV
  Normalized tail current V0.5: -56.3 ± 2.2 mV
  Slope: 7.4 ± 1.6 mV
Q2/W265L-Q3 channels; 100 µM
  Non-normalized tail current V0.5: -63.7 ± 11.2 mV
  Normalized tail current V0.5: -61.8 ± 2.2 mV
  Slope: 6.6 ± 2.1 mV
Q2/W265L-Q3 channels; V0.5 EC50, Q2/W265L-Q3, calculated from shift in V0.5
  EC50: 13.7 ± 0.3 µM
KCNQ2/3 channels
  resting membrane potential (EM) of unclamped oocytes expressing KCNQ2/3: dose-dependently hyperpolarizes
KCNQ2/3 channels; 1 µM alone
  effects on KCNQ2/3: negligible effects
KCNQ2/3 channels; 30 µM, tail currents at −30 mV
  effect on voltage dependence of KCNQ2/3 activation (initial screen): negative-shifted
KCNQ2/3 channels; 100 µM
  KCNQ2/3 current increase at −60 mV: seven-fold
KCNQ2/3 channels; +40 mV
  effect on KCNQ2/3 at +40 mV: little effect
KCNQ2/3 channels; EC50, KCNQ2/3, current at −60 mV, calculated from dose responses
  EC50: 11.5 ± 0.2 µM
KCNQ2/3 channels; KCNQ2/3, 0.1 µM
  Non-normalized tail current V0.5: -47.3 ± 2.4 mV
  Normalized tail current V0.5: -47.8 ± 0.5 mV
  Slope: 7.5 ± 0.4 mV
  τ act, -40 mV: 684 ± 55 ms
  τ deact, -80 mV: 236 ± 12 ms
KCNQ2/3 channels; KCNQ2/3, 1 µM
  Non-normalized tail current V0.5: -44.4 ± 4.9 mV
  Normalized tail current V0.5: -47.0 ± 0.9 mV
  Slope: 7.4 ± 0.6 mV
  τ act, -40 mV: 611 ± 46 ms
  τ deact, -80 mV: 227 ± 20 ms
KCNQ2/3 channels; KCNQ2/3, 3 µM
  Non-normalized tail current V0.5: -47.3 ± 5.0 mV
  Normalized tail current V0.5: -50.7 ± 1.0 mV
  Slope: 7.9 ± 0.8 mV
  τ act, -40 mV: 530 ± 37 ms
  τ deact, -80 mV: 259 ± 12 ms
KCNQ2/3 channels; KCNQ2/3, 10 µM
  Non-normalized tail current V0.5: -51.9 ± 4.8 mV
  Normalized tail current V0.5: -56.2 ± 1.3 mV
  Slope: 6.8 ± 1.3 mV
  τ act, -40 mV: 462 ± 34 ms
  τ deact, -80 mV: 261 ± 7 ms
KCNQ2/3 channels; KCNQ2/3, 30 µM
  Non-normalized tail current V0.5: -54.9 ± 4.9 mV
  Normalized tail current V0.5: -60.0 ± 1.8 mV
  Slope: 8.0 ± 1.8 mV
KCNQ2/3 channels; [4]
  τ act, -20 mV: 205 ± 6 ms
  τ act, -40 mV: 397 ± 26 ms
  τ act, -60 mV: 835 ± 51 ms
KCNQ2/3 channels; [5]
  τ deact, -80 mV: 143 ± 39 ms
  τ deact, -90 mV: 105 ± 4.2 ms
  τ deact, -100 mV: 77 ± 6.2 ms
  τ deact, -110 mV: 53 ± 3.5 ms
  τ deact, -120 mV: 36 ± 1.2 ms
KCNQ2/3 channels; [6]
  τ act, -40 mV: 403 ± 33 ms
  τ deact, -80 mV: 259 ± 18 ms
KCNQ2/3 channels; KCNQ2/3, 100 µM
  Non-normalized tail current V0.5: -56.6 ± 3.8 mV
  Normalized tail current V0.5: -57.1 ± 0.6 mV
  Slope: 7.2 ± 0.5 mV
  τ act, -40 mV: 403 ± 34 ms
  τ deact, -80 mV: 415 ± 87 ms
KCNQ2/3 channels; KCNQ2/3, MTX 30 µM
  shift in midpoint voltage dependence (V0.5) of activation: −17 mV
KCNQ2/3 channels; V0.5 EC50, KCNQ2/3, calculated from shift in V0.5
  EC50: 4 ± 0.2 µM
KCNQ2/3 channels; either component alone (MTX 30 µM; IVA 500 µM)
  KCNQ2/3 current increase at −60 mV: ~ fivefold
KCNQ2/3 channels; −60 mV current
  time to plateau of KCNQ2/3 activation after wash-in: 5 min
[3]; 10 mg/kg i.p. alone
  clonic seizure incidence: neither compound reduced clonic seizures alone
[3]; 20 mg/kg i.p., 30 min before 80 mg kg−1 PTZ
  clonic seizure incidence: halved
[3]; individually
  suppression of PTZ-induced tonic seizures: ineffective
